Where two headings read alike, the source gives them in different places.
Tests used:
[1] = system: breast cancer MCF-7 cells; assay: Intrinsic activity of prodrug and hydroxylated metabolite in breast cancer MCF-7 cells; assay type: cell-based; conditions: Homo sapiens, MCF7; prodrug versus hydroxylated metabolite
K562 = conditions: antitumour activity; cited from earlier work
[2] = MCF-7 cell line (non-induced) cytotoxicity assay (MTT); assay type: cell-based; conditions: human, MCF-7 breast tumour cells, non-induced (no TCDD), non-induced MCF-7 cells
MCF-10A (Normal Breast) = assay: MCF-10A normal cell line cytotoxicity assay; assay type: cell-based, human; conditions: Homo sapiens, MCF-10A, read-out: IC50 against the normal cell line
MDA-468 (Breast Tumor) = assay: MDA-468 tumour cell line cytotoxicity assay; conditions: for Tumor Selectivity Differential Factor: IC50 MCF-10A / IC50 MDA-468, fold more toxic to cancer cells than to normal cells
Procedure: MDA-468 Tumour Cell Line Versus MCF-10A Normal Cell Line Assay
This cell culture based assay is performed using the two cell lines MDA-468 and MCF-10A. The MDA-468 cell line is an advanced breast cancer cell line, whilst the MCF-10A cell line is a normal breast cell line.
The tumour selectivity differential factor(TSDF) is calculated by dividing the IC50 obtained from the MCF-10A data by the IC50 obtained from the MDA-468 data.

TCDD-induced MCF-7 cells = assay: TCDD-induced MCF-7 cell line cytotoxicity assay (MTT); conditions: for Tumor Selectivity Differential Factor: IC50 MCF-7 cells / IC50 TCDD-induced MCF-7 cells, fold more toxic to "tumour" cells than to "normal" cells; for IC50: read-out: Cytotoxicity TCDD-induced MCF-7 Cells IC50, 10 nM TCDD for 24 hours, then 96 hours with compound, MTT
Procedure: TCDD-Induced MCF-7 Cell Line Versus MCF-7 Cell Line Cytotoxicity Assay
1×10^3 cells were plated out in 100 μl medium per well of 96-well flat-bottomed plates (Fisher). […] The medium was then carefully aspirated and 100 μl fresh medium added. […] 50 μl MTT (Thiazol blue, Sigma) at 2 mg/ml in Dulbecco's phosphate buffered saline-A, was then added to each well for 3 hours: All medium was aspirated, then the formazan product generated by viable cells was solubilized with 150 μl DMSO. Plates were vortexed and the absorbance at 540 nm determined using a plate reader. […] All determinations were carried out in at least triplicate.

[3] = MCF-10A normal cell line cytotoxicity assay; assay type: cell-based, human; conditions: human, MCF-10A normal breast cells; without TCDD
[4] = read-out: Cytotoxicity MDA-468 (Breast Tumor) IC50, without TCDD

Row | Compound | IC50 at 96 h [2] [nM] | Tumor Selectivity Differential Factor (MDA-468 (Breast Tumor)) | Tumor Selectivity Differential Factor (TCDD-induced MCF-7 cells) | IC50 (TCDD-induced MCF-7 cells) [nM] | further results
1 | COc1cc(OC)cc(C(=O)/C=C/c2ccc(OC)c(O)c2)c1 [(E)-1-(3-Hydroxy-4-methoxyphenyl)-3-(3,5-dimethoxyphenyl) prop-1-en-3-one] |  |  |  |  | IC50 [1]: 0.65 nM
2 | COc1ccc(/C=C/C(=O)c2cc(OC)cc(OC)c2)cc1 [(E)-1-(4-methoxyphenyl)-3-(3,5-dimethoxyphenyl)prop-1-en-3-one] |  |  |  |  | IC50 [1]: 690 nM
3 | CC(=O)/C=C/c1ccc(O)cc1 [(E)-1-(4′-hydroxyphenyl)but-1-en-3-one] |  |  |  |  | IC50 (K562): 60000 nM
4 | COc1cc(C(=O)/C=C/c2ccc3c(c2)OCO3)cc(OC)c1OC [DMU-135, (E)-1-(3,4-Methylenedioxyphenyl)-3-(3,4,5-trimethoxyphenyl)prop-1-en-3-one] | 920 | 120 | 65 |  | IC50 (MCF-10A (Normal Breast)): 2300 nM; melting point: 135 °C; IC50 (MDA-468 (Breast Tumor); read-out: IC50 against the advanced tumour cell line, MDA-468, FIG. 2): 20 nM
5 | COc1cc(OC)cc(C(=O)/C=C/c2ccc3c(c2)OCO3)c1 [DMU-403, (E)-1-(3,4-methylenedioxyphenyl)-3-(3,5-dimethoxyphenyl)prop-1-en-3-one] | 3500 |  | 6 | 570 | 
6 | COc1ccc(C(=O)/C=C/c2ccc3c(c2)OCO3)c(OC)c1 [DMU-407, (E)-1-(3,4-methylenedioxyphenyl)-3-(2,4-dimethoxyphenyl)prop-1-en-3-one] | 7000 |  | 3 | 2700 | melting point: 137 °C
7 | COc1ccc(C(=O)/C=C/c2ccc3c(c2)OCO3)c(OC)c1OC [DMU-419, (E)-1-(3,4-methylenedioxyphenyl)-3-(2,3,4-trimethoxyphenyl)prop-1-en-3-one] | 2800 |  | 3 | 840 | 
8 | COc1ccc(OC)c(C(=O)/C=C/c2ccc3c(c2)OCO3)c1 [DMU-423, (E)-1-(3,4-methylenedioxyphenyl)-3-(2,5-dimethoxyphenyl)prop-1-en-3-one] | 3500 |  | 13 | 260 | melting point: 101 °C
9 | COc1cccc2c1C(=O)c1c(O)c3c(c(O)c1C2=O)C[C@@](O)(C(=O)CO)C[C@@H]3O[C@H]1C[C@H](N)[C@H](O)[C@H](C)O1 [Doxorubicin, doxorubicin] |  | 0.1 |  |  | IC50 at 96 h [3]: 0.3 nM; fold more toxic to normal cells than to cancer cells (MDA-468 (Breast Tumor); MCF-10A versus MDA-468): 10 fold; IC50 (MDA-468 (Breast Tumor); [4]): 3 nM
10 | CN(Cc1cnc2nc(N)nc(N)c2n1)c1ccc(C(=O)N[C@@H](CCC(=O)O)C(=O)O)cc1 [Methotrexate, methotrexate] |  | 1.5 |  |  | IC50 at 96 h [3]: 60 nM; IC50 (MDA-468 (Breast Tumor); [4]): 40 nM
11 | CC/C(=C(\c1ccccc1)c1ccc(OCCN(C)C)cc1)c1ccccc1 [Tamoxifen, tamoxifen] |  | 1.6 |  |  | IC50 at 96 h [3]: 6300 nM; IC50 (MDA-468 (Breast Tumor); [4]): 4000 nM
